The NIST ThermoML archive (doi:10.1016/j.jct.2012.06.031)

Assay: refractive index (Na D-line) (dimensionless); xn = mol fraction of the nth substance listed
Conditions: 101 kPa, Liquid, Standard Abbe refractometry

CC(O)CO (stereo not given) [1,2-propanediol] + c1ccncc1
refractive index
Conditions	x2 = 0	x2 = 0.1	x2 = 0.2	x2 = 0.2999	x2 = 0.4	x2 = 0.4999	x2 = 0.6	x2 = 0.7001	x2 = 0.8	x2 = 0.9
288.15 K	1.43411	1.44356	1.4522	1.46041	1.46838	1.47609	1.48375	1.49129	1.49866	1.50554
293.15 K	1.43247	1.4418	1.4503	1.4584	1.46629	1.47383	1.4814	1.48884	1.49609	1.50288
298.15 K	1.43081	1.43993	1.44839	1.4564	1.46417	1.47163	1.47909	1.4864	1.49345	1.49993
303.15 K	1.42915	1.43816	1.4465	1.45438	1.46204	1.4694	1.47676	1.48397	1.49093	1.49727
308.15 K	1.42751	1.43643	1.44465	1.45244	1.46	1.46728	1.47448	1.48152	1.48841	1.49461
313.15 K	1.42581	1.43463	1.44276	1.45051	1.45802	1.46517	1.47224	1.4791	1.48589	1.49195
318.15 K	1.42407	1.43286	1.44082	1.44855	1.45597	1.46296	1.46991	1.47665	1.48321	1.4894
323.15 K	1.4223	1.43109	1.439	1.44676	1.45397	1.46088	1.46777	1.47441	1.48086	1.4869

OCCCO [propan-1,3-diol] + c1ccncc1
refractive index
Conditions	x2 = 0	x2 = 0.0999	x2 = 0.2	x2 = 0.3	x2 = 0.4001	x2 = 0.5	x2 = 0.5999	x2 = 0.7	x2 = 0.7998	x2 = 0.8998
288.15 K	1.44089	1.44922	1.45763	1.46592	1.47372	1.4809	1.48773	1.49409	1.49986	1.50582
293.15 K	1.43947	1.44774	1.45599	1.46414	1.47185	1.47889	1.48556	1.4918	1.49743	1.50319
298.15 K	1.43805	1.44619	1.45436	1.46235	1.46995	1.47685	1.4834	1.4895	1.495	1.50057
303.15 K	1.43665	1.44473	1.45279	1.46061	1.46805	1.47482	1.48124	1.4872	1.49257	1.49795
308.15 K	1.43526	1.44328	1.45118	1.45892	1.46621	1.4728	1.47907	1.48491	1.49016	1.49536
313.15 K	1.43387	1.44171	1.44953	1.45718	1.46432	1.47092	1.47707	1.48267	1.48778	1.49276
318.15 K	1.43244	1.4402	1.44788	1.45542	1.4624	1.4689	1.47491	1.48045	1.4855	1.49023
323.15 K	1.43099	1.43869	1.44628	1.45378	1.46051	1.467	1.47312	1.47837	1.4833	1.48788

c1ccncc1 [pyridine] + CCCO
refractive index
Conditions	x1 = 0.1001	x1 = 0.1998	x1 = 0.2999	x1 = 0.3998	x1 = 0.5	x1 = 0.5999	x1 = 0.7	x1 = 0.8	x1 = 0.8998	x1 = 1
288.15 K	1.40196	1.41533	1.42836	1.44094	1.45341	1.46554	1.47748	1.48907	1.50064	1.51184
293.15 K	1.39979	1.41307	1.42603	1.43854	1.45095	1.46301	1.47487	1.4864	1.49788	1.509
298.15 K	1.39757	1.41079	1.42367	1.43616	1.44848	1.46047	1.47228	1.48375	1.49514	1.50616
303.15 K	1.39535	1.40849	1.42136	1.43375	1.44601	1.45795	1.46968	1.48107	1.49238	1.50331
308.15 K	1.3931	1.40618	1.41898	1.43132	1.44353	1.45541	1.46708	1.47839	1.48965	1.50048
313.15 K	1.39068	1.40381	1.41659	1.42891	1.44102	1.45287	1.46445	1.47573	1.48683	1.49769
318.15 K	1.3884	1.40151	1.41425	1.42648	1.43857	1.45038	1.46187	1.47309	1.48411	1.49493
323.15 K	1.38622	1.39909	1.41179	1.42409	1.43616	1.44788	1.45942	1.47055	1.48155	1.49219

c1ccncc1 [pyridine] + OCC(O)CO
refractive index
Conditions	x1 = 0.1	x1 = 0.2001	x1 = 0.3001	x1 = 0.4	x1 = 0.4998	x1 = 0.6001	x1 = 0.6999	x1 = 0.8001	x1 = 0.8999	x1 = 1
288.15 K	1.48103	1.48616	1.49108	1.49581	1.49973	1.50321	1.50634	1.50874	1.51057	1.51184
293.15 K	1.47967	1.48469	1.48946	1.49406	1.49786	1.50115	1.50412	1.50638	1.50796	1.509
298.15 K	1.47829	1.48318	1.48784	1.49227	1.49597	1.49954	1.50189	1.504	1.50535	1.50616
303.15 K	1.4769	1.48167	1.48619	1.49055	1.49411	1.49711	1.49967	1.50162	1.50275	1.50331
308.15 K	1.47553	1.48015	1.48454	1.48882	1.49222	1.49515	1.49743	1.49927	1.50017	1.50048
313.15 K	1.47412	1.47863	1.48286	1.48703	1.49024	1.49307	1.49542	1.49699	1.49777	1.49769
318.15 K	1.47272	1.47699	1.4812	1.48522	1.48844	1.49119	1.49319	1.4947	1.49512	1.49493
323.15 K	1.47138	1.47548	1.47953	1.48348	1.48658	1.48919	1.49101	1.4924	1.4926	1.49219
